# Assay results published in patent publication US10130598B2, “Methods and compositions for administration of 3-halopyruvate and related compounds for the treatment of cancer” (The Johns Hopkins University, priority 2008, dated 2018).
# Like-named read-outs stand apart in the source and are kept apart here.
# How the values were obtained:
# [1] = test system: tumors implanted in rabbit livers; settings: cited from earlier work
# [2] = test system: Hep3B, HepG2, SK-Hep1 and VX2 cells; assay: Active caspase-3 western blot; type: cell-based; settings: all four cell lines; 100, 150, 200 μM
# Experimental: The apoptosis of 3-BrPA treated cells was evaluated using Annexin V staining and the formation of active caspase-3. Cells treated with 3-BrPA were stained with anti-Annexin V and analyzed by flow cytometry as well as fluorescent microscopy. Flow cytometry was performed using a Becton-Dickinson FACSCalibur. The gating was done based on unstained control cells, Annexin V—PE stained and 7-AAD stained control cells. For fluorescent microscopy, Annexin V staining was performed using Annexin V staining Microscopy kit (BD Biosciences, USA) according to the protocol recommended by the manufacturer. In brief, cells grown in chambered slides were treated with either 3BrPA or the vehicle, washed once with ice-cold PBS followed by two washes with binding buffer, at the end of the treatment period. Cells were then incubated with the FITC-conjugated Annexin V fluorescent antibody for 15 min followed by a gentle wash. The cells were kept in binding buffer and images were observed captured using a Zeiss Axiovert 200 Microscope (Carl Zeiss Microimaging Inc., USA). Active caspase-3, an apoptotic marker, was identified by western blot analysis. Lysates prepared from equal numbers of cells treated with different concentrations of 3BrPA were subjected to SDS-PAGE electrophoresis and immunoblotting against active (cleaved) caspase-3. […]
# [3] = test system: Hep3B cells; assay: ATP dependent luminescence cell viability assay, Hep3B; type: cell-based
# Description: (§1) The non-small cell lung cancer (NSCLC) cell line NCI-H1299, the breast cancer cell lines MCF7 and MDA MB 231 and the Hep3B, Hep2G and SK-Hep1 cells were obtained from the American Type Culture Collection (ATCC) (Manassas, Va., USA) and maintained as a monolayer culture in Eagle's minimum essential medium (MEM, Invitrogen, Gaithersburg, Md., USA) supplemented with 10% fetal bovine serum at 37 C and 5% CO2. All treatments were done in triplicate samples on 96-well plates. VX2 cells were maintained as described in Geschwind et al., Cancer Res., 62:3909-3913 (2002).
# Cytotoxicity of 3-BrPA was evaluated by the IC50 values, representing the drug concentration which depletes ATP by 50% compared to non-treated control. On day 1, cells were seeded into 96-well plates in a volume of 100 μl per well. On day 2, the medium of all wells was removed and an aliquot of 100 μl of media having serial dilutions of 3-BrPA in PBS, NaHCO3, NaOH, KOH and KHCO3 was added to the appropriate well. […] Briefly, 100 μl assay reagent was added to each well and mixed at room temperature for 2 min to develop luminescent signal. The luminescence intensity (cps) from each sample was determined with a spectrometer (Model Victor III, Perkin Elmer, Mass.). […]
# (§2) The effects on cell viability and cellular metabolism of 3-BrPA on Hep3B and VX2 cells were examined using luminescence ATP assays, as described above. […]
# [4] = test system: Vx-2 cell line; assay: ATP dependent luminescence cell viability assay, VX2; type: cell-based; settings: for IC50: Vx-2, read-out: IC50 (ATP depletion)
# Description: as §1
# Cytotoxicity of 3-BrPA was evaluated by the IC50 values, representing the drug concentration which depletes ATP by 50% compared to non-treated control. On day 1, cells were seeded into 96-well plates in a volume of 100 μl per well. On day 2, the medium of all wells was removed and an aliquot of 100 μl of media having serial dilutions of 3-BrPA in PBS, NaHCO3, NaOH, KOH and KHCO3 was added to the appropriate well. […] Briefly, 100 μl assay reagent was added to each well and mixed at room temperature for 2 min to develop luminescent signal. The luminescence intensity (cps) from each sample was determined with a spectrometer (Model Victor III, Perkin Elmer, Mass.). Relative luminescence was calculated in proportion to the numbers of living cells per sample well. The results are expressed as the mean of three independent experiments. The intracellular ATP contents were calculated and normalized by equal cell number and expressed as the percentage of the control cells. The IC50 values were estimated graphically from dose-response plots.
# The efficacy of 3-BrPA in the treatment of liver cancer cells was further tested using the cancer cell lines Hep3B, HepG2, SK-Hep1 and VX2. […]
# as §2
# [5] = test system: Human PANC-10 pancreatic cancer cells; assay: Orthotopic xenograft pancreatic cancer model, oral 3-BrPA; type: in vivo, NOD/SCID mice; settings: for Tumor size at day 50: NaHCO3-buffered, oral
# Experimental: The efficacy of orally administered 3-BrPA in the treatment of pancreatic cancer was tested using an orthotopic xenograft pancreatic cancer model. Human PANC-10 pancreatic cancer cells were implanted into the pancreas of NOD/SCID mice and allowed to form 4-5 mm^3 sized tumors. Following the establishment of the tumors, tumor-bearing mice were orally administered 250 μl of a NaHCO3-buffered solution containing varying concentrations of 3-BrPA once per day. After 50 days of treatment, the tumor-bearing mice were sacrificed and tumor growth and cancer cell proliferation was analyzed.
# [6] = General toxicology studies, oral NaHCO3-buffered 3-BrPA; type: in vivo, nude mice; settings: 100 and 200 mg/kg/day oral, single dose to 3-months of daily dosing
# Experimental: General toxicology studies were conducted on nude mice that were orally administered NaHCO3-buffered 3-BrPA at doses of 0, 100 and 200 mg/kg/day. The duration of exposure in this study ranged from a single dose to 3-months of daily dosing. […] 3-BrPA treatment had no effect on body weight.
compound,measurement,setting,value
"O=C(O)C(=O)CBr [3-BrPA, 3-bromopyruvate]",Tumor eradication,[1]; administered directly into the liver by intra-arterial injection,completely eradicate tumors
same,Therapeutic dose,"[1]; in 25 ml of PBS, continuous 1 hour intra-arterial infusion",1.75 mM
same,Biodistribution: tumor uptake,[1]; intra-arterially delivered,high tumor uptake
same,Effects on healthy tissue,[1]; intra-arterially delivered,no negative effects on healthy tissue
same,Caspase-3 activation (immunoblot),[2],dose dependent increase
same,Level of ATP,"[3]; 3, 24, 48 hours",dose and time dependent decrease
same,IC50,"[3]; at 48 hours, read-out: IC50 (ATP depletion)",125 µM
same,Level of ATP,"[4]; VX2, 3, 24, 48 hours",dose and time dependent decrease
same,IC50,[4]; at 48 hours,50 µM
same,IC50,[4]; treatment time not given,60 µM
same,Tumor size at day 50,[5]; daily dose of 50 mg/kg,12-14 mm^3
same,Tumor size at day 50,[5]; daily dose of 100 mg/kg,7-8 mm^3
same,Tumor size at day 50,[5]; daily dose of 150 mg/kg,4-6 mm^3
same,Tumor size at day 50,[5]; daily dose of 200 mg/kg,3-5 mm^3
same,Local metastases,[5]; daily dose of 50 mg/kg,lacked any signs of local metastases
same,Mitotic index,[5]; daily dose of 50 mg/kg,9-10 mitotic cells per field
same,Local metastases,[5]; daily dose of 100 mg/kg,lacked any signs of local metastases
same,Mitotic index,[5]; daily dose of 100 mg/kg,7 mitotic cells per field
same,Local metastases,[5]; daily dose of 150 mg/kg,lacked any signs of local metastases
same,Mitotic index,[5]; daily dose of 150 mg/kg,2-4 mitotic cells per field
same,Local metastases,[5]; daily dose of 200 mg/kg,lacked any signs of local metastases
same,Mitotic index,[5]; daily dose of 200 mg/kg,1-2 mitotic cells per field
same,Tumor growth,"[5]; daily dose of 200 mg/kg, day 50",no signs of growth
same,Clinical symptoms,[6],did not exhibit any treatment related clinical symptoms
same,Effect on body weight,[6],no effect
same,Mortality,[6],no mortalities
same,"Organ weights, gross pathology and histopathology",[6],did not show any treatment-related changes
